Reference: patent US11530197B2, “Analogs for the treatment of disease” (Insilico Medicine IP Limited, priority 2021, dated 2022)
Where two headings read alike, the source gives them in different places.

Assays:
[1] = Metabolic stability in human liver microsomes; assay type: in vitro ADME; conditions: LM Clint; 1 μM test compound, 0.5 mg protein/mL microsome, 37° C., up to 60 min;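 further: NADPH-supplemented human liver microsomes sampled at 0, 5, 10, 20, 30 and 60 min, parent compound quantified by LC-MS/MS, intrinsic clearance from first-order decay, no-cofactor incubation as control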
[2] = tested on: Collagen I (COL1A1) in LX-2 cells; experiment: Collagen and Alpha-SMA in LX-2 (Western blot after TGF-β stimulation); assay type: cell-based; conditions: Homo sapiens, 4 ng/ml TGF-β for 48 hours, Collagen I normalized to GAPDH;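 further: cells serum-starved in 0.4% FBS before treatment, lysates analysed by Western blot, DMSO-only wells as blank and TGF-β alone as maximal induction control, three independent experiments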
TNIK(h) = TNIK(h) (Homo sapiens (Human), UniProt Q9UKE5); experiment: TNIK Human STE Kinase Enzymatic Radiometric Assay; assay type: biochemical;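 further: remaining kinase activity relative to DMSO control, compound added without preincubation, reaction started with ATP, IC50 from variable-slope sigmoidal dose-response fit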
MAP4K4 (h) = MAP4K4 (h) (Homo sapiens (Human), UniProt O95819); experiment: MAP4K4 Human STE Kinase Enzymatic Radiometric Assay; assay type: biochemical; conditions: ATP 200 μM; 40 min at room temperature;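 further: kinase activity remaining relative to the DMSO control, IC50 derived from sigmoidal variable-slope curve fits, no preincubation of compound with enzyme before ATP start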
[3] = ATP 70 μM, 40 min at room temperature, read-out: TNIK (IC50)

Chain of MAP4K4 (h) (O95819 whole entry): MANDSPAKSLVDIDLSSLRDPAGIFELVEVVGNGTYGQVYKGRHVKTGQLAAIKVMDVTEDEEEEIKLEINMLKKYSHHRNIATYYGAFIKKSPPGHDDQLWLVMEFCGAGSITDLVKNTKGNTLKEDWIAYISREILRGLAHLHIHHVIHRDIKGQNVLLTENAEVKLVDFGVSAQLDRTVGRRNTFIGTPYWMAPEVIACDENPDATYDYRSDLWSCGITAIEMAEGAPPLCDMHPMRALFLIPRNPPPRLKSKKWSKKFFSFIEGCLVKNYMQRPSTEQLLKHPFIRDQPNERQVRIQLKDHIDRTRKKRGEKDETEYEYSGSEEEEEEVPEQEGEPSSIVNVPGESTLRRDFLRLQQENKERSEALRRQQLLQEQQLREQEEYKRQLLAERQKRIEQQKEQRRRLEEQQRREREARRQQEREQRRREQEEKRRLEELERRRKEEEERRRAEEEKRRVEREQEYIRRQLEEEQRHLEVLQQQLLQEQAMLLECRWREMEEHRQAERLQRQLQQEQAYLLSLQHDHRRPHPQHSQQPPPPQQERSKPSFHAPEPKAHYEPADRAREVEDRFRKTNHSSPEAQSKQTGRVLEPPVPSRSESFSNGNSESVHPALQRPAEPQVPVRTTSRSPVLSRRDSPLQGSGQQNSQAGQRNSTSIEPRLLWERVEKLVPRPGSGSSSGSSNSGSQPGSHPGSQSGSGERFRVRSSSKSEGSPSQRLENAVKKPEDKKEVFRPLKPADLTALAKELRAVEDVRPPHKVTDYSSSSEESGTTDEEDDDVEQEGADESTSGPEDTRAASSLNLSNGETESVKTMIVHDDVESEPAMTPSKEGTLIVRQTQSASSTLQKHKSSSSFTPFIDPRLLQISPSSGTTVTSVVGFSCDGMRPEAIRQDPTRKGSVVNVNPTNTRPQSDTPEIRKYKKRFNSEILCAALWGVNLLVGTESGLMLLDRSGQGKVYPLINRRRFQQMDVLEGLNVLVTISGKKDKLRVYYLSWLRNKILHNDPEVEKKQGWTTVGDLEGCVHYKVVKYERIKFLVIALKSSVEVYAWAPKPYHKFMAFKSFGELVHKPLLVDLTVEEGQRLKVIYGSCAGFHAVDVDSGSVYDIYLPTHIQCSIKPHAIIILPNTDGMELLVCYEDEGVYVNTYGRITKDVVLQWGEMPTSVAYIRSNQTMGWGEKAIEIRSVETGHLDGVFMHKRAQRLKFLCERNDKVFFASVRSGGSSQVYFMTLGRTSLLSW
Chain of TNIK(h) (Q9UKE5 whole entry): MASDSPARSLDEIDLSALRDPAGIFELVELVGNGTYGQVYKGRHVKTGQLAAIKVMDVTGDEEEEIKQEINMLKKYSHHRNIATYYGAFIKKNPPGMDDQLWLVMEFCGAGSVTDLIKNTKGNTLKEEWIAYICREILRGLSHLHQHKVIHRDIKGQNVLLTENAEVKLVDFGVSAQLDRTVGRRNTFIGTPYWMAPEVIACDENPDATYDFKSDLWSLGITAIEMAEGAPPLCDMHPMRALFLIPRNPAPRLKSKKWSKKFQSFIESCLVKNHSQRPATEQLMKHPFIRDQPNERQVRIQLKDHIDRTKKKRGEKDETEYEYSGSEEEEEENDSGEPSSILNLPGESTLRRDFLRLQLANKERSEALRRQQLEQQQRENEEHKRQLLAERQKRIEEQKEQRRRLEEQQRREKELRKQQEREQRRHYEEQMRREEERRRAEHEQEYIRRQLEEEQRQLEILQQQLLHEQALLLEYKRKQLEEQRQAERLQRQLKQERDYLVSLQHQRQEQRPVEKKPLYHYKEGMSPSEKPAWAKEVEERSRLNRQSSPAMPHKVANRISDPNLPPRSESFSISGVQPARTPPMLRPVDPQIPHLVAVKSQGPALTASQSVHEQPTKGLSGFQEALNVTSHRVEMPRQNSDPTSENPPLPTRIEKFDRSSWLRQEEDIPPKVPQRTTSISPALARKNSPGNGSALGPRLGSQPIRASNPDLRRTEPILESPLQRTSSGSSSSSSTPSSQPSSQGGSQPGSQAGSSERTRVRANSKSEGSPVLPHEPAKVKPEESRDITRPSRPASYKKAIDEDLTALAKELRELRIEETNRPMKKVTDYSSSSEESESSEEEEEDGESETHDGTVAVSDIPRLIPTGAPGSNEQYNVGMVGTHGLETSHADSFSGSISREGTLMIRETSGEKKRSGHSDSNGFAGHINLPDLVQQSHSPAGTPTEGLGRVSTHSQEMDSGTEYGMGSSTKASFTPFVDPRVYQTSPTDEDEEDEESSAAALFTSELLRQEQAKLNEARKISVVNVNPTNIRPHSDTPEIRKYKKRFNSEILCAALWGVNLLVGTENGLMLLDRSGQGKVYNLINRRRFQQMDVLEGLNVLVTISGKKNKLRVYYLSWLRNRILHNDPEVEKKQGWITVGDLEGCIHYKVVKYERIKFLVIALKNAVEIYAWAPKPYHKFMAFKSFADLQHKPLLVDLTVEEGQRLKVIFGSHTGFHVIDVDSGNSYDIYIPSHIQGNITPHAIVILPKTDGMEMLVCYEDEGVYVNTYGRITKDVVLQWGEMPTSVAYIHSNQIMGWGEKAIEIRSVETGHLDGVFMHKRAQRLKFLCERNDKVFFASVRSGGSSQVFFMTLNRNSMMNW

Human Liver Microsome (μM/min/mg) [1]	IC50 (TNIK(h); [3]) [nM]	IC50 (MAP4K4 (h)) [nM]	Compound	IC50 [2] [nM]	IC50 (TNIK(h)) [nM]
++ (10-100 μM/min/mg as ++)	12 to 120	> 120	CC(C)n1cnc(-c2ccc(Cl)cc2)c1-c1nc(C(=O)Nc2ccc(N3CCN(CCO)CC3)cc2)c[nH]1 [Compound 139, 5′-(4-chlorophenyl)-N-(4-(4-(2-hydroxyethyl)piperazin-1-yl)phenyl)-3′-isopropyl-1H,3′H-[2,4′-biimidazole]-4-carboxamide]	0.1 to 1	–
++ (10-100 μM/min/mg as ++)	12 to 120	> 120	CC(C)n1cnc(-c2ccc(F)c(F)c2)c1-c1nc(C(=O)Nc2ccc(N3CCN(CCO)CC3)cc2)c[nH]1 [Compound 146, 5′-(3,4-difluorophenyl)-N-(4-(4-(2-hydroxyethyl)piperazin-1-yl)phenyl)-3′-isopropyl-1H,3′H-[2,4′-biimidazole]-4-carboxamide]	0.1 to 1	–
++ (10-100 μM/min/mg as ++)	1 to 12	12 to 120	CN1CCN(c2ccc(NC(=O)c3c[nH]c(-c4c(-c5ccc(F)cc5)ncn4[C@H]4CC[C@H](O)CC4)n3)cc2)CC1 [Compound 159, 5′-(4-fluorophenyl)-3′-((1r,4r)-4-hydroxycyclohexyl)-N-(4-(4-methylpiperazin-1-yl)phenyl)-1H,3′H-[2,4′-biimidazole]-4-carboxamide]	0.1 to 1	–
++ (10-100 μM/min/mg as ++)	12 to 120	> 120	O=C(Nc1ccc(N2CCNCC2)cc1)c1c[nH]c(-c2c(-c3ccc(F)cc3)ncn2CC(F)(F)F)n1 [Compound 167, 5′-(4-fluorophenyl)-N-(4-(piperazin-1-yl)phenyl)-3′-(2,2,2-trifluoroethyl)-1H,3′H-[2,4′-biimidazole]-4-carboxamide]	< 0.1	–

Compound	Human Liver Microsome (μM/min/mg) [1]	IC50 (TNIK(h); [3]) [nM]	IC50 (MAP4K4 (h)) [nM]	IC50 [2] [nM]	IC50 (TNIK(h)) [nM]
CC(C)n1cnc(-c2ccc(F)cc2)c1-c1cccc(C(=O)Nc2ccc(CCC(=O)O)cc2)n1 [Compound 131]	+++ (1-10 μM/min/mg as +++)	1 to 12	12 to 120	0.1 to 1	–
CC(C)n1cnc(-c2ccc(F)c(F)c2)c1-c1nc(C(=O)Nc2ccc(N3CCN(C)CC3)cc2)c[nH]1 [Compound 156, 5′-(3,4-difluorophenyl)-3′-isopropyl-N-(4-(4-methylpiperazin-1-yl)phenyl)-1H,3′H-[2,4′-biimidazole]-4-carboxamide]	++ (10-100 μM/min/mg as ++)	–	> 120	< 0.1	12 to 120
